Assay results reported in the supplement of paper PMC5908809.

Tests used:
[1] = system: normal NK cells expanded with K562-aAPC; experiment: drug sensitivity score (DSS) (DSS units); higher = more sensitive; extreme values may be limits of the assay; conditions: 72 h; IL-2 2.5 ng/mL
Procedure: (§1)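 Drug sensitivity and resistance testing on K562-aAPC-expanded normal NK cells: 5 concentrations (10-fold steps over a 10,000-fold range), 72 h at 37 °C, viability by CellTiter-Glo normalised to DMSO and benzethonium chloride controls; DSS from the fitted curve.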

IMC-1 (IL-2 20 ng/mL) [2] = experiment: percent inhibition of viability; higher = more inhibition; conditions: 72 h
[3] = system: normal primary NK cells, pool 3 (3 donors) (IL-2 2.5 ng/mL); experiment: as above; conditions: 72 h
[4] = system: normal primary NK cells, pool 2 (3 donors) (IL-2 2.5 ng/mL); experiment: as above; conditions: 72 h
IMC-1 (IL-2 20 ng/mL) [5] = experiment: drug sensitivity score (DSS) (DSS units); higher = more sensitive; extreme values may be limits of the assay; conditions: 72 h
[6] = system: normal primary NK cells, pool 3 (3 donors) (IL-2 2.5 ng/mL); experiment: as above; conditions: 72 h
[7] = system: normal primary NK cells, pool 2 (3 donors) (IL-2 2.5 ng/mL); experiment: as above; conditions: 72 h
[8] = system: normal NK cells expanded with K562-aAPC; experiment: percent inhibition of viability; higher = more inhibition; conditions: 72 h, IL-2 2.5 ng/mL
Procedure: as §1

KAI3 (IL-2 2.5 ng/mL) [9] = experiment: as above; conditions: 72 h
KHYG-1 (IL-2 2.5 ng/mL) [10] = experiment: as above; conditions: 72 h
DERL-7 (IL-2 2.5 ng/mL) [11] = experiment: as above; conditions: 72 h
[12] = system: normal primary NK cells, pool 1 (3 donors) (IL-2 2.5 ng/mL); experiment: as above; conditions: 72 h
NK-92 (IL-2 2.5 ng/mL) [13] = experiment: as above; conditions: 72 h
NKL (IL-2 2.5 ng/mL) [14] = experiment: as above; conditions: 72 h
YT (IL-2 2.5 ng/mL) [15] = experiment: as above; conditions: 72 h
SNK-6 (IL-2 2.5 ng/mL) [16] = experiment: as above; conditions: 72 h
[17] = system: normal primary NK cells, pool 1 (3 donors), resting (IL-2 0 ng/mL); experiment: as above; conditions: 72 h
NK-YS (IL-2 2.5 ng/mL) [18] = experiment: as above; conditions: 72 h
KAI3 (IL-2 2.5 ng/mL) [19] = experiment: drug sensitivity score (DSS) (DSS units); higher = more sensitive; extreme values may be limits of the assay; conditions: 72 h
KHYG-1 (IL-2 2.5 ng/mL) [20] = experiment: as above; conditions: 72 h
DERL-7 (IL-2 2.5 ng/mL) [21] = experiment: as above; conditions: 72 h
[22] = system: normal primary NK cells, pool 1 (3 donors) (IL-2 2.5 ng/mL); experiment: as above; conditions: 72 h
NK-92 (IL-2 2.5 ng/mL) [23] = experiment: as above; conditions: 72 h
NKL (IL-2 2.5 ng/mL) [24] = experiment: as above; conditions: 72 h
YT (IL-2 2.5 ng/mL) [25] = experiment: as above; conditions: 72 h
SNK-6 (IL-2 2.5 ng/mL) [26] = experiment: as above; conditions: 72 h
[27] = system: normal primary NK cells, pool 1 (3 donors), resting (IL-2 0 ng/mL); experiment: as above; conditions: 72 h
NK-YS (IL-2 2.5 ng/mL) [28] = experiment: as above; conditions: 72 h

CON(C)C(=O)N1N=C(c2cc(F)ccc2F)S[C@@]1(CCCN)c1ccccc1 [Filanesib] (max concentration tested 1000 nM)
Conditions	drug sensitivity score
IMC-1 (IL-2 20 ng/mL) [5]	30.5
[1]	18.2
[6]	0
[7]	0

percent inhibition of viability [%]
Conditions	0.1 nM	1 nM	10 nM	100 nM	1000 nM
IMC-1 (IL-2 20 ng/mL) [2]	0.48	0.61	99.5	100	99.5
[3]	-8.61	0.04	1.29	2.17	-3.73
[4]	-10.4	4.01	3.31	2.78	0.91
[8]	5.43	2.85	56.5	56.8	56.8

CC(C)n1nc(-c2ccc3oc(N)nc3c2)c2c(N)ncnc21 [INK128] (max concentration tested 1000 nM)
percent inhibition of viability [%]
Conditions	DERL-7 (IL-2 2.5 ng/mL) [11]	KAI3 (IL-2 2.5 ng/mL) [9]	KHYG-1 (IL-2 2.5 ng/mL) [10]	NK-92 (IL-2 2.5 ng/mL) [13]	NK-YS (IL-2 2.5 ng/mL) [18]	NKL (IL-2 2.5 ng/mL) [14]	SNK-6 (IL-2 2.5 ng/mL) [16]	YT (IL-2 2.5 ng/mL) [15]	[12]	[17]
0.1 nM	-4.21	-5.24	-4.72	-2.13	-11.2	0.39	-24	-1.84	-6.36	-19.8
1 nM	-1.17	-1.02	1.98	9.63	-5.11	1.73	-3.64	1.95	5.5	6.92
10 nM	39.4	24.1	3.77	22.5	6.74	38.8	15.8	15.8	19.8	15.4
100 nM	76.1	54.6	33	60.8	51.9	63.9	45.9	65.5	31.3	17.9
1000 nM	91.4	70.3	83.9	74.7	71.6	70.2	41.9	78	40.5	34.9

Conditions	drug sensitivity score
DERL-7 (IL-2 2.5 ng/mL) [21]	19.2
KAI3 (IL-2 2.5 ng/mL) [19]	13.1
KHYG-1 (IL-2 2.5 ng/mL) [20]	8.73
NK-92 (IL-2 2.5 ng/mL) [23]	14.1
NK-YS (IL-2 2.5 ng/mL) [28]	10.7
NKL (IL-2 2.5 ng/mL) [24]	17.1
SNK-6 (IL-2 2.5 ng/mL) [26]	10.6
YT (IL-2 2.5 ng/mL) [25]	14.1
[22]	7.91
[27]	4.47

CC(C)n1nc(-c2ccc3oc(N)nc3c2)c2c(N)ncnc21 [MLN-0128] (max concentration tested 1000 nM)
Conditions	drug sensitivity score
IMC-1 (IL-2 20 ng/mL) [5]	0.2
[1]	9.64
[6]	3.64
[7]	8.27

percent inhibition of viability [%]
Conditions	0.1 nM	1 nM	10 nM	100 nM	1000 nM
IMC-1 (IL-2 20 ng/mL) [2]	-2.42	-1.34	-16.7	-30.3	19.6
[3]	-6.15	0.85	15.6	13.5	35.5
[4]	-8.27	4.32	23.5	28	36.7
[8]	-6.08	-1.99	18	40.5	44.1

CCCCCCCCCCCCCCCCCCOP(=O)([O-])OC1CC[N+](C)(C)CC1 [Perifosine] (max concentration tested 2500 nM)
Conditions	drug sensitivity score
IMC-1 (IL-2 20 ng/mL) [5]	0.06
[1]	0.73
[6]	0
[7]	0

percent inhibition of viability [%]
Conditions	0.25 nM	2.5 nM	25 nM	250 nM	2500 nM
IMC-1 (IL-2 20 ng/mL) [2]	-3.43	-7.43	0.31	2.67	10.9
[3]	-6.26	-5.2	0.44	3.24	9.26
[4]	-4.58	-3.48	-0.26	4.53	7.26
[8]	-10.4	-4.12	-6.08	9.36	14

c1cc(CN2CCCNCCNCCCNCC2)ccc1CN1CCCNCCNCCCNCC1 [Plerixafor] (max concentration tested 10000 nM)
Conditions	drug sensitivity score
IMC-1 (IL-2 20 ng/mL) [5]	0.01
[1]	0
[6]	0
[7]	0

percent inhibition of viability [%]
Conditions	1 nM	10 nM	100 nM	1000 nM	10000 nM
IMC-1 (IL-2 20 ng/mL) [2]	-6.62	-2.25	-2.63	-6.11	12
[3]	-11.8	-3.1	-2.77	-16.3	-17.5
[4]	-13.2	-6.73	-6.7	-15	-10.7
[8]	-8.84	-11.8	-6.04	-7.74	-11.7

CCN(c1cc(-c2ccc(CN3CCOCC3)cc2)cc(C(=O)NCc2c(C)cc(C)[nH]c2=O)c1C)C1CCOCC1 [Tazemetostat] (max concentration tested 10000 nM)
Conditions	drug sensitivity score
IMC-1 (IL-2 20 ng/mL) [5]	0
[1]	0
[6]	0
[7]	0

percent inhibition of viability [%]
Conditions	1 nM	10 nM	100 nM	1000 nM	10000 nM
IMC-1 (IL-2 20 ng/mL) [2]	-6.56	0.55	-2.13	1.66	2.45
[3]	-4.31	-2.24	8.29	-7.9	0.75
[4]	-7.19	-1.07	5.71	-5.28	7.6
[8]	-1.54	2.17	-0.28	10.4	0.84
